The text below walks through data of patent US5811456A, “Monoamine oxidase B inhibitors, processes for their preparation and use thereof” (priority 1994, dated 1998).

Where two headings read alike, the source gives them in different places.

One series deals with T1, rat brain MAO B (Rattus norvegicus, UniProt P19643).
T1 construct: makes it possible to obtain a pellet enriched in mitochondria; from tissue; host or cells: Wistar rat brain without cerebellum, mitochondria-enriched pellet
T1 sequence (P19643 1-520): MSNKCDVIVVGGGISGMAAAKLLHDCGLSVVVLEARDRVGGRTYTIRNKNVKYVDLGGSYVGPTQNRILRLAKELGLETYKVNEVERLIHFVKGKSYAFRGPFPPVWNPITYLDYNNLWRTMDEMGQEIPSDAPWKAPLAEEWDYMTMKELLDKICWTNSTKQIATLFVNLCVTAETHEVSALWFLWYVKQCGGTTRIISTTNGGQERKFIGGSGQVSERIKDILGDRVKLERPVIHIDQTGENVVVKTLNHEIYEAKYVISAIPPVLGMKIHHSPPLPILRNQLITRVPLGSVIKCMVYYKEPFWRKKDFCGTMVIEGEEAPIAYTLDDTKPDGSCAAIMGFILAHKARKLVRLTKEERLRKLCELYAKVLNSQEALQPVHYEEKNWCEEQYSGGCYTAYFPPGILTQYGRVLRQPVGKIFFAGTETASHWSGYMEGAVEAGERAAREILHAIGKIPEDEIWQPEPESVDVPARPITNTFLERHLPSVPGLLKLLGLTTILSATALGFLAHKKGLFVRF
The series is described as follows: Inhibitory activity toward rat brain MAO B in vitro (14C-beta-phenylethylamine substrate). The series is classed as biochemical.

Series [1] is described as follows: Cytotoxicity test on the cells in suspension (Trypan blue). Particulars: human, daudi cells; for CC50 at 24 h: read-out: LD50 (concentration for which 50% of the cells are killed); for MNTC at 24 h: read-out: MC100 (maximum concentration for which all the cells are alive). Type of series: cell-based.
Series [2] can be described thus: MTT cytotoxicity test on adherent cells. Type of series: cell-based. Particulars: human, hela ohio cells; for CC50 at 24 h: read-out: LD50 (concentration for which 50% of the cells are killed); for MNTC at 24 h: read-out: MC100 (maximum concentration for which all the cells are alive).
Another series has as its target T2, monoamine oxidase B (Rattus norvegicus, UniProt P19643).
T2 construct: from tissue; host or cells: rat brain mitochondria (inferred from section 21.1; not restated in section 21.2)
T2 sequence (P19643 1-520): T1 sequence (P19643 1-520)
The series is described as follows: Reversibility of the inhibitory activity toward MAO B (residual activity before and after washing). Type of series: biochemical. Particulars: mean of 4 assays.

The target of another series is T3, rat brain MAO A (Rattus norvegicus, UniProt P21396).
T3 construct: makes it possible to obtain a pellet enriched in mitochondria; from tissue; host or cells: Wistar rat brain without cerebellum, mitochondria-enriched pellet
T3 sequence (P21396 1-526): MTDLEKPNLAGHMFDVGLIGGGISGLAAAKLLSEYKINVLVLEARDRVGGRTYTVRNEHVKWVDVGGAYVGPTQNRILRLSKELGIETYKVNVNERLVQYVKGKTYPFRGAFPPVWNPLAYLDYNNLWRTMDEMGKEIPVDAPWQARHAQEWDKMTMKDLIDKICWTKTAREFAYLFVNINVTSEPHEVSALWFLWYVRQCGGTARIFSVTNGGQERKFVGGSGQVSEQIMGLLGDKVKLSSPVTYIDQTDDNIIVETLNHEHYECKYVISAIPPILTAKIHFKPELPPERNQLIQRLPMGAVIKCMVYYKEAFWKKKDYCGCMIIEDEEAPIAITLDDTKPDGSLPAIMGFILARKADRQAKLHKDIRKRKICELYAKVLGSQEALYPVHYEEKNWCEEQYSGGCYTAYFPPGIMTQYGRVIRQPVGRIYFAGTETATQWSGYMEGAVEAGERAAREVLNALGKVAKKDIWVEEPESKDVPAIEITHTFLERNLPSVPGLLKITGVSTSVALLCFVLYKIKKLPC
The series can be described thus: Inhibitory activity toward rat brain MAO A in vitro (14C-serotonin substrate). The series is classed as biochemical.

The conditions of series [3]: background; cited from earlier work.
For a further series, the system named is MAO A. Particulars: background; cited from earlier work.
Where [4] appears, read: ap: after preincubation (30 minutes, 37° C.), read-out: IC50 MAO B.
Setting [5] is: wp: without preincubation, read-out: IC50 MAO B.
[6] abbreviates: ap: after preincubation (30 minutes, 37° C.).

Take `CNC(=O)N(CCC#N)N=Cc1ccc(OCc2ccccc2)cc1` [I-c2, 4-(benzyloxy)benzaldehyde (2-cyanoethyl)(N-methylcarbamoyl)hydrazone]: the IC50 (in general, the concentration needed to halve the response being measured) was 2.5 µM at rat brain MAO B (setting [4]) and 1.8 µM on rat brain MAO B (setting [5]).
For the molecule `COc1ccc(COc2ccc(C=NN(CCC#N)C(C)=O)cc2)cc1` [I-a2.4], the IC50 on rat brain MAO B (setting [4]) was 2.15 µM; on rat brain MAO B (setting [5]) it was 28 µM. Besides, the values for the CC50 at 24 h in series [1] and in series [2] were 65 µM and 40 µM, respectively. Besides, the MNTC at 24 h was 12.5 µM in series [1] and 2300 nM in series [2].
Take `CC(=O)N(CCC#N)N=Cc1ccc(OCc2ccc(Cl)cc2Cl)cc1` [I-a2.5, 4-[(2,4-Dichlorobenzyl)oxy]benzaldehyde acetyl(2-cyanoethyl)hydrazone]: the IC50 against rat brain MAO B amounted to 0.38 µM. For the same molecule, the “IC50 MAO B” value against rat brain MAO B (wp: without preincubation) is listed as “precipitate”.
In the case of `CC(=O)N(CCC#N)N=Cc1ccc(OCc2ccc(Cl)cc2)cc1` [I-a2.3], the IC50 came to 0.245 µM at rat brain MAO B (setting [4]) and 11.3 µM on rat brain MAO B (setting [5]). Further, in series [1], the CC50 at 24 h came to 50 µM. Besides, the MNTC at 24 h in series [1] came out at 10 µM; in series [2], 600 nM.
With `CC(=O)N(CCC#N)N=Cc1ccc(OCc2ccccc2)cc1` [I-a2, 4-(Benzyloxy)benzaldehyde acetyl(2-cyanoethyl)hydrazone], the “Percentage of residual MAO activity” value on monoamine oxidase B (after washing, 30 min) worked out at 105%; on monoamine oxidase B (before washing, 30 min incubation at 37° C.), 14%. Moreover, the IC50 stood at 0.003 µM on rat brain MAO B (setting [4]) and 0.035 µM on rat brain MAO B (setting [5]). Moreover, the CC50 at 24 h in series [1] and in series [2] was 100 µM throughout. Further, the MNTC at 24 h in series [1] was found to be 10 µM; in series [2] it was 10000 nM.
On to `CC(=O)N(CCC#N)N=Cc1ccc(OCc2ccc([N+](=O)[O-])cc2)cc1` [I-a2.2], for which the IC50 at rat brain MAO B (setting [4]) was 1.4 µM; on rat brain MAO B (setting [5]) it was 3 µM. The results for the CC50 at 24 h in series [1] and in series [2] were 22 µM and 30 µM, respectively. Also, the values for the MNTC at 24 h in series [1] and in series [2] were 10 µM and 650 nM, respectively.
Consider `C#CCN(N=Cc1ccc(OCc2ccccc2)cc1)C(C)=O` [I-a10, 4-(Benzyloxy)benzaldehyde acetylpropargylhydrazone], for which the IC50 at rat brain MAO B (setting [4]) was found to be 0.36 µM; at rat brain MAO B (setting [5]) it was 4.1 µM.
As for `CNC(=O)N(CCC#N)N=Cc1ccccc1` [I-c1, Benzaldehyde (2-cyanoethyl)(N-methylcarbamoyl)hydrazone], the IC50 on rat brain MAO B (setting [4]) worked out at 120 µM; at rat brain MAO B (setting [5]), 280 µM.
Take `CC(=O)N(CCC#N)N=Cc1ccc(OCCc2ccccc2)cc1` [I-a6, 4-(2-Phenylethozy)benzaldehyde acetyl(2-cyanoethyl)hydrazone]: the IC50 at rat brain MAO B (setting [4]) was found to be 0.015 µM; at rat brain MAO B (setting [5]) it was 3 µM; against rat brain MAO A (setting [6]), 6.8 µM; on rat brain MAO A (wp: without preincubation) it was 53 µM.
On to `CC(=O)N(CCO)N=Cc1ccc(OCc2ccccc2)cc1` [I-a4, 4-(Benzyloxy)benzaldehyde acetyl(2-hydroxyethyl)hydrazone], for which the IC50 is 0.0063 µM at rat brain MAO B (setting [4]), 0.028 µM at rat brain MAO B (setting [5]), 50 µM against rat brain MAO A (setting [6]) and 50 µM at rat brain MAO A (wp: without preincubation). Also, the CC50 at 24 h in series [1] and in series [2] was 100 µM each time. Also, the MNTC at 24 h in series [1] came out at 10 µM; in series [2], 10000 nM.
As for `C#CCN(C)C(C)Cc1ccccc1` (stereo not shown) [Deprenyl], in series [3], the “antidepressant effects (in words)” value is given as “lack antidepressant effects”.
As for `CCOC(=O)N(CCC#N)N=Cc1ccc(OCc2ccccc2)cc1` [I-b2, 4-(Benzylozy)benzaldehyde (2-cyanoethyl)(ethoxycarbonyl)hydrazone], the concentration for half-maximal inhibition (IC50) on rat brain MAO B (setting [4]) was determined as 6.3 µM; at rat brain MAO B (setting [5]), 22 µM.
The like results for `CC(=O)N(CCC#N)N=Cc1ccc(OCc2ccc(C)cc2)cc1` [I-a2.1] were, in that order, 0.69 µM and 43 µM.
The like results for `CCOC(=O)N(CCO)N=Cc1ccc(OCc2ccccc2)cc1` [I-b4, 4-(Benzyloxy)benzaldehyde (2-hydroxyethyl)(ethoxycarbonyl)hydrazone] were, in that order, 10 µM and 35 µM.
On to `C#CCN(C)CCCOc1ccc(Cl)cc1Cl` [clorgyline], for which the “inhibition of MAO A (in words)” value in the series with MAO A is “inhibit MAO A”.
As to `C#CCN(C)Cc1ccccc1` [pargyline], the “antidepressant effects (in words)” value in series [3] was “lack antidepressant effects”. In addition, the “inhibition of MAO A (in words)” value in the series with MAO A is “inhibit MAO A”.
